The results in this text go back to patent US11999718B2, “Pyrazole derivatives” (Aptabio Therapeutics Inc., priority 2021, dated 2024).

In assay [1] the test system is IL-8. As to the kind of experiment: Expression of IL-8 in pancreatic cancer associated fibroblasts (ELISA). It counts as cell-based, human. The settings on record: P.CAF cells, 48 hours treatment, FIG. 6. The method, then:
(§1) In order to confirm the effect of the compounds of Synthetic examples of the present invention on inflammation reaction in cancer associated fibroblasts, whether the expression of IL6 and IL8 was inhibited by the compounds of Synthetic examples in pancreatic cancer associated fibroblasts (P.CAF) was observed.
(§2) After inoculating 1.5×10^5 cells in a 6 well plate and then culturing in P.CAF complete media for 48 hours, the compounds of Synthetic examples were treated by 10, 20, 30, 40, 60 and 80 μM for 48 hours according to each condition, and then the expression of IL-6 and IL-8 was confirmed by performing ELISA with Quantkine ELISA kit (R&D systems) as follows.
(§3) 100 μl of the culture solution in which the compounds of Synthetic examples were treated for 48 hours was added to the microplate strip for analysis including a 100 μl assay diluent and left at a room temperature for 2 hours and then the contents were removed, and then it was washed with 400 μl wash buffer 4 times. 200 μl of a human IL-6 or IL-8 conjugate was added and left at a room temperature for 2 hours and then the contents were removed, and then it was washed with 400 μl wash buffer 4 times. 200 μl of substrate solution was added and left at a room temperature for 20 minutes and then 50 μl of stop solution was added, and the absorbance at a wavelength of 450 nm was measured within 30 minutes to confirm the expression level of IL-6 and IL-8.
In general terms: ELISA stands for enzyme-linked immunosorbent assay.

Assay [2] deals with HFF-1 cells. Nature of the assay: Collagen gel contraction induced by TGF-β1 in HFF-1 cells. It counts as cell-based, human. The settings on record: HFF-1 cells in collagen gel, TGF-β1 10 ng/ml, 72 hours, FIG. 7. The text has this:
In order to confirm the effect of the compounds of Synthetic examples on differentiation of fibroblasts into myofibroblasts, the inhibitory effect of the compounds of Synthetic examples on the phenomenon of contraction of gel induced by interaction of human foreskin fibroblasts (HFF-1, ATCC) and collagen was observed.
The mixed solution of the HFF-1 cells and collagen (bovine type I collagen) prepared at a concentration of 3×10^6 cells/ml was aliquoted in a 24 well plate, respectively, and then cultured under the condition of 5% CO2, 37° C. for 1 hour to induce gel polymerization. Then, after suspending the gel attached on the plate from the plate using a spoon, a medium comprising TGF-β1 and Synthetic example compounds was added to each well. After culturing for 72 hours, the Synthetic example compounds were treated by 10, 20, 30, 40, 60 and 80 μM to measure the size of the gel, and thereby, the degree of contraction of the gel by drug treatment was confirmed.

Assay [3] has as its system HL-60 cells differentiated into neutrophil cells. Nature of the assay: ROS production induced by PMA in HL-60 cells differentiated into neutrophil cells. It counts as cell-based. The settings on record: Homo sapiens, 0.5 h; differentiated HL-60 cells, compounds 0.5 uM (0.5 mM in the source) for 30 minutes, 200 nM PMA, L-012 luminescence. The text has this:
In order to confirm the effect of the compounds of Synthetic examples on ROS production from fibroblasts and specific substrate cells, ROS production was induced by stimulation of PMA (phorbol 12-myristate 13-acetate), TGF-β1, palmitate or high concentration-glucose, or the like, in HL-60 cells differentiated into neutrophil cells by DMSO treatment, NHLF (normal human lung fibroblast, Lonza), LX-2 (human hepatic stellate cells, Sigma), ARPE19 (human retinal pigment epithelial cell, ATCC), and KEL-FIB (Keloid fibroblast, ATCC) cells, and under this condition, the inhibitory effect of ROS production of the compounds of Synthetic Examples was observed.
HL-60 cells (human leukemia cells, ATCC) were suspended in a medium containing 1.25% DMSO (RPMI+10% FBS) and cultured under the condition of 5% CO2, 37° C. for 6 days, thereby inducing differentiation into neutrophil cells. […] Then, to each well comprising the cells and drug, 200 nM PMA was treated to induce ROS production, and such ROS production was measured by observing the luminescence level of each well using 100 μM L-012.

Assay [4] deals with IL-6. Nature of the assay: Expression of IL-6 in pancreatic cancer associated fibroblasts (ELISA). It counts as cell-based, human. The settings on record: P.CAF cells, 48 hours treatment, FIG. 5. As to the method: as §1, §2, §3

Where only a bound is given, the exact number is not on record here.

For orientation: inhibition means the drop in the measured response relative to a control, in per cent. Read a high inhibition as a strong effect. For `CN(Cc1cc2ccccc2cn1)C1CCc2nn(-c3ccccn3)c(O)c2C1` (centres unmarked) [Compound 62, 5-[(Isoquinolin-3-ylmethyl)methylamino]-2-(pyridin-2-yl)-4,5,6,7-tetrahydro-2H-indazol-3-ol], the “IL-8 expressed in P.CAF” value in assay [1] is recorded as “effectively inhibited”. Moreover, the “contraction of the gel induced by TGF-β1” value in assay [2] is “effectively inhibited”. The compound further yielded an inhibition at 0.5 µM in assay [3] greater than 70%. In addition, the “IL-6 expressed in P.CAF” value in assay [4] is listed as “effectively inhibited”.

For the compound `CN(Cc1ccc2ncccc2c1)C1CCc2nn(-c3ccccn3)c(O)c2C1` (centres unmarked) [Compound 63, 5-[Methyl(quinolin-6-ylmethyl)amino]-2-(pyridin-2-yl)-4,5,6,7-tetrahydro-2H-indazol-3-ol], the “IL-8 expressed in P.CAF” value in assay [1] is recorded as “effectively inhibited”. For the same compound, the “contraction of the gel induced by TGF-β1” value in assay [2] is on record as “effectively inhibited”. The inhibition at 0.5 µM in assay [3] was greater than 70%. The “IL-6 expressed in P.CAF” value in assay [4] was “effectively inhibited”.

For the compound `CN(C1CCc2nn(-c3ccccn3)c(O)c2C1)C1CCCc2cccnc21` (centres unmarked) [Compound 33, 5-[Methyl(5,6,7,8-tetrahydroquinolin-8-yl)amino]-2-(pyridin-2-yl)-4,5,6,7-tetrahydro-2H-indazol-3-ol], the “IL-8 expressed in P.CAF” value in assay [1] is “effectively inhibited”. In addition, the “contraction of the gel induced by TGF-β1” value in assay [2] was “effectively inhibited”. Further, the inhibition at 0.5 µM in assay [3] lay in the range of 50 to 70%. Besides, the “IL-6 expressed in P.CAF” value in assay [4] is “effectively inhibited”.

For `COc1cccc(CN(C)C2CCc3nn(-c4ccccn4)c(O)c3C2)c1` (centres unmarked) [Compound 13, 5-[(3-Methoxybenzyl)methylamino]-2-(pyridin-2-yl)-4,5,6,7-tetrahydro-2H-indazol-3-ol], the “contraction of the gel induced by TGF-β1” value in assay [2] was “effectively inhibited”. Also, the inhibition at 0.5 µM in assay [3] was greater than 70%.

Turning to `CN(C)c1ccccc1CN(C)C1CCc2nn(-c3ccccn3)c(O)c2C1` (centres unmarked) [Compound 71, 5-[(2-Dimethylamino)benzylmethylamino]-2-(pyridin-2-yl)-4,5,6,7-tetrahydro-2H-indazol-3-ol], the inhibition at 0.5 µM in assay [3] was in the range of 50 to 70%.

`CN(Cc1cccc(C(F)(F)F)c1)C1CCc2nn(-c3ccccn3)c(O)c2C1` (centres unmarked) [Compound 10, 5-[Methyl-(3-trifluoromethylbenzyl)-amino]-2-pyridin-2-yl-4,5,6,7-tetrahydro-2H-indazol-3-ol] gave an inhibition at 0.5 µM in assay [3] of 30 to 50%.

`Oc1c2c(nn1-c1ccccn1)CCC(N1CCOCC1)C2` (centres unmarked) [Compound 15, 5-Morpholino-4-yl-2-(pyridin-2-yl)-4,5,6,7-tetrahydro-2H-indazol-3-ol] returned an inhibition at 0.5 µM in assay [3] greater than 70%.

Regarding `Oc1c2c(nn1-c1ccccn1)CCC(N1CCCCC1)C2` (centres unmarked) [Compound 14, 5-Piperidin-1-yl-2-(pyridin-2-yl)-4,5,6,7-tetrahydro-2H-indazol-3-ol], the “contraction of the gel induced by TGF-β1” value in assay [2] is on record as “effectively inhibited”. The compound also came in with an inhibition at 0.5 µM in assay [3] of 50 to 70%.

For the compound `CC(=O)c1ccc(N2CCN(C3CCc4nn(-c5ccccn5)c(O)c4C3)CC2)cc1` (centres unmarked) [Compound 130, 1-(4-(4-(3-Hydroxy-2-(pyridin-2-yl)-4,5,6,7-tetrahydro-2H-indazol-5-yl)piperazin-1-yl)phenyl)ethan-1-one], the inhibition at 0.5 µM in assay [3] is greater than 70%.

For the compound `CN1CCN(C2CCc3nn(-c4cccc(Cl)n4)c(O)c3C2)CC1` (centres unmarked) [Compound 83, 2-(6-Chloropyridin-2-yl)-5-(4-methylpiperazin-1-yl)-4,5,6,7-tetrahydro-2H-indazol-3-ol], the inhibition at 0.5 µM in assay [3] is greater than 70%.

In turn, `Oc1c2c(nn1-c1ccccn1)CCC(N1CCN(CCCc3ccccc3)CC1)C2` (centres unmarked) [Compound 107, 5-(4-(3-Phenylpropyl)piperazin-1-yl)-2-(pyridin-2-yl)-4,5,6,7-tetrahydro-2H-indazol-3-ol] registered an inhibition at 0.5 µM in assay [3] greater than 70%.

As for `Oc1c2c(nn1-c1ccccn1)CCC(N1CCN(Cc3ccc4ncccc4c3)CC1)C2` (centres unmarked) [Compound 90, 2-(Pyridin-2-yl)-5-(4-(quinolin-6-ylmethyl)piperazin-1-yl)-4,5,6,7-tetrahydro-2H-indazol-3-ol], in assay [3], the inhibition at 0.5 µM was greater than 70%.

In turn, `Oc1c2c(nn1-c1ccccn1)CCC(N(Cc1ccccc1)C1CC1)C2` (centres unmarked) [Compound 2, 5-(Benzylcyclopropylamino)-2-(pyridin-2-yl)-4,5,6,7-tetrahydro-2H-indazol-3-ol] gave an inhibition at 0.5 µM in assay [3] greater than 70%.

Take `Oc1c2c(nn1-c1ccccn1)CCC(N1CCN(Cc3ccccc3)CC1)C2` (centres unmarked) [Compound 105, 5-(4-Benzylpiperazin-1-yl)-2-(pyridin-2-yl)-4,5,6,7-tetrahydro-2H-indazol-3-ol]: the inhibition at 0.5 µM in assay [3] was greater than 70%.

`CCN(Cc1ccccc1)C1CCc2nn(-c3ccccn3)c(O)c2C1` (centres unmarked) [Compound 20, 5-(Benzylethylamino)-2-(pyridin-2-yl)-4,5,6,7-tetrahydro-2H-indazol-3-ol]: the inhibition at 0.5 µM in assay [3] lay within 30 to 50%.

As to `COc1ccccc1CN(C)C1CCc2nn(-c3ccccn3)c(O)c2C1` (centres unmarked) [Compound 26, 5-[(2-Methoxybenzyl)-methylamino]-2-(pyridin-2-yl)-4,5,6,7-tetrahydro-2H-indazol-3-ol], the inhibition at 0.5 µM in assay [3] was less than 30%.

In assay [3], `Oc1c2c(nn1-c1ccccn1)CCC(N1CCN(CCc3ccccc3)CC1)C2` (centres unmarked) [Compound 104, 5-(4-Penethylpiperazin-1-yl)-2-(pyridin-2-yl)-4,5,6,7-tetrahydro-2H-indazol-3-ol] returned an inhibition at 0.5 µM of 50 to 70%.

In turn, `CN1CCN(C2CCc3nn(-c4ccc(Cl)cc4)c(O)c3C2)CC1` (centres unmarked) [Compound 94, 2-(4-Chlorophenyl)-5-(4-methylpiperazin-1-yl)-4,5,6,7-tetrahydro-2H-indazol-3-ol] returned an inhibition at 0.5 µM in assay [3] greater than 70%.

`COc1ccc(N2CCN(C3CCc4nn(-c5ccccn5)c(O)c4C3)CC2)cc1` (centres unmarked) [Compound 129, 5-(4-(4-Methoxyphenyl)piperazin-1-yl)-2-(pyridin-2-yl)-4,5,6,7-tetrahydro-2H-indazol-3-ol] registered an inhibition at 0.5 µM in assay [3] greater than 70%.

As for `Cc1cc(C(F)(F)F)cc(-n2nc3c(c2O)CC(N2CCN(C)CC2)CC3)n1` (centres unmarked) [Compound 84, 2-(6-Methyl-4-(trifluoromethyl)pyridin-2-yl)-5-(4-methylpiperazin-1-yl)-4,5,6,7-tetrahydro-2H-indazol-3-ol], in assay [3], the inhibition at 0.5 µM fell in the range of 50 to 70%.

The compound `CN(Cc1ccccc1Cl)C1CCc2nn(-c3ccccn3)c(O)c2C1` (centres unmarked) [Compound 6, 5-[(2-Chlorobenzyl)methylamino]-2-(pyridin-2-yl)-4,5,6,7-tetrahydro-2H-indazol-3-ol] returned an inhibition at 0.5 µM in assay [3] greater than 70%.

In the case of `CCCCN(Cc1ccccc1)C1CCc2nn(-c3ccccn3)c(O)c2C1` (centres unmarked) [Compound 22, 5-(Benzylbutylamino)-2-(pyridin-2-yl)-4,5,6,7-tetrahydro-2H-indazol-3-ol], the inhibition at 0.5 µM in assay [3] is less than 30%.

For `CN(C)c1ccc(CN(C)C2CCc3nn(-c4ccccn4)c(O)c3C2)cc1` (centres unmarked) [Compound 70, 5-[(4-Dimethylamino)benzylmethylamino]-2-(pyridin-2-yl)-4,5,6,7-tetrahydro-2H-indazol-3-ol], the inhibition at 0.5 µM in assay [3] is 30 to 50%.

`CN1CCN(C2CCc3nn(-c4ccc(F)cc4)c(O)c3C2)CC1` (centres unmarked) [Compound 102, 2-(4-Fluorophenyl)-5-(4-methylpiperazin-1-yl)-4,5,6,7-tetrahydro-2H-indazol-3-ol] had an inhibition at 0.5 µM in assay [3] greater than 70%.
